In patent US7790762B2, “Compounds and methods for thiol-containing compound efflux and cancer treatment” (National Jewish Health, priority 2002, dated 2010):
Like-named read-outs stand apart in the source and are kept apart here.

Legend:
Format in all cases: cell-based, human
[1] = test system: A549 cells; experiment: Intracellular GSH levels by HPLC-EC in A549 cells; details: for activity at 25 µM / activity at 50 µM: Homo sapiens; for effect on intracellular GSH (words): A549 cells
Experimental: (§1) Cell lines and culture conditions. Human lung epithelial cancer (A549), human leukemia HL-60 and human prostate (PC-3) tumor cells were purchased from ATCC (Manassas, Va.). A549 and PC-3 cells were grown in Ham's F12 medium (F12) and Kaighn's modification of Ham's F12 medium (F12K) with 2 mM L-glutamine (ATCC), respectively, supplemented with 10% fetal bovine serum (FBS) and 5% pen/strep (10,000 unit, Cellgro). HL-60 cells were grown in Iscove's modified Dulbecco's medium with 4 mM L-glutamine (ATCC) supplemented with 20% FBS and 5% pen/strep. Cell were grown in T-75 flask at 37° C. and 5% CO2 air atmosphere and in 24-well plates for GSH levels and LDH release measurements.
(§2) Intracellular levels of GSH. Intracellular GSH levels can be determined by HPLC-EC. Cultured cells from 24-well plates were washed once with 1 ml of PBS and then re-suspended in 0.5 ml of distilled water with 40 μM of digitonin (2 mM stock solution in DMSO) for 30 min at room temperature. Then, 50 μl of 10% meta-phosphoric acid were added (1% final concentration), the samples were sonicated for 2 min, centrifuged at 20,000 g for 10 min, and 0.2 ml of supernatant placed in vials for HPLC analysis. […] The flow rate was […]. The retention time for GSH in these conditions was 7.5 min. The HPLC instrument was from ESA, Inc. (Chelmsford, Mass.), equipped with an autosampler (model 540) and a Coul array detector (model 5600A). The potential applied was +0.75 V vs. H/Pd electrode, and the injection volume 5 μl.

[2] = test system: HL-60 cells; experiment: Intracellular GSH levels by HPLC-EC in HL-60 cells
Experimental: as §1, §2

[3] = test system: HL-60 cells; experiment: Cytotoxicity as LDH release in HL-60 cells; details: for LDH rel. % con. / LDH release, % of control at 25 µM / LDH release, % of control at 50 µM: 48 hours treatment; for LDH release, % of control at 25 µM / LDH release, % of control at 50 µM: Homo sapiens, read-out: LDH rel. % con.
Experimental: as §1
(§3) Assessment of cytotoxicity. In one exemplary method, membrane integrity of A549, HL-60 and PC-3 cells was used as an index of drug-induced cytotoxicity, and was assessed by monitoring the release of cytosolic lactate dehydrogenase (LDH). LDH activity was measured in the culture medium and cell lysates (50 mM HEPES, Triton X-100 0.5%, pH 7) using a plate reader format as previously described (41). Briefly, 5 μl of cell culture supernatant and lysates were incubated with 0.24 mM NADH in a Tris/NaCl pH 7.2 buffer in 96-well plates for 5 min at 25° C. The reaction was started by the addition of 9.8 mM pyruvate and the consumption of NADH followed at 340 nm for 5 min at 30° C. Percent LDH release was calculated by the following: (supernatant LDH/supernatant LDH+lysate LDH)×100.

[4] = test system: PC-3 cells; experiment: Intracellular GSH levels by HPLC-EC in PC-3 cells; details: for Int. GSH % con. / activity at 25 µM: PC-3, 25 μM
Experimental: as §1, §2

[5] = test system: A549 cells; experiment: Cytotoxicity as LDH release in A549 cells; details: 48 hours treatment; for LDH rel. % con. / LDH release, % of control at 75 µM: A549, 75 μM; for LDH release, % of control at 50 µM / LDH release, % of control at 75 µM: Homo sapiens, read-out: LDH rel. % con.; for LDH release, % of control at 50 µM: A549, 50 μM
Experimental: as §1, §3

[6] = test system: PC-3 cells; experiment: Cytotoxicity as LDH release in PC-3 cells; details: for LDH rel. % con. / LDH release, % of control at 50 µM: PC-3, 50 μM, 48 hours treatment; for LDH release, % of control at 50 µM: Homo sapiens, read-out: LDH rel. % con.
Experimental: as §1, §3

[7] = A549, 25 μM, 2 h, read-out: Intracellular GSH levels, % compared to control
[8] = A549, 25 μM, 4 h, read-out: Intracellular GSH levels, % compared to control
[9] = A549, 25 μM, 24 hours treatment
[10] = HL-60, 50 μM, 24 hours treatment
[11] = A549, 50 μM, 24 hours treatment, read-out: Int. GSH % con.
[12] = Homo sapiens, HL-60, 25 μM, 24 hours treatment, read-out: Int. GSH % con.
[13] = Homo sapiens, 24 hours treatment, read-out: Int. GSH % con.
[14] = A549, 25 μM, 24 hours treatment, read-out: Int. GSH % con.

SMILES: O=C(/C=C/c1ccccc1O)c1ccccc1O [2′,2-DHC, 2′ 2 dihydroxychalcone]
- Intracellular GSH levels, % compared to control ([1]; A549, 25 μM, 2 h): <5%
- Intracellular GSH levels, % compared to control ([1]; A549, 25 μM, 4 h): <5%

SMILES: C[C@]12CC[C@@H]3c4ccc(O)cc4CC[C@H]3[C@@H]1CC[C@@H]2O [β-Estradiol, β-estradiol, reference compound]
- Int. GSH % con. ([1]; A549, 50 μM, 24 hours treatment): 41 % con.
- Int. GSH % con. ([2]; HL-60, 25 μM, 24 hours treatment): 70 % con.
- LDH rel. % con. ([3]; HL-60, 25 μM): 120 % con.
- Int. GSH % con. ([4]; 24 hours treatment): 98 % con.

SMILES: O=C(/C=C/c1ccccc1)c1ccc(O)cc1 [4′-HC, 4′-hydroxychalcone]
- activity at 25 µM [1, 7]: 35.6 ± 2.9%
- activity at 25 µM [1, 8]: < 5%
- intracellular GSH levels compared to control ([2]; HL-60 cells, 25 μM, 24 hours of treatment (FIG. 19B)): 215%
- intracellular GSH levels compared to control ([4]; PC-3 cells, 25 μM, 24 hours of treatment (FIG. 19B)): 164%

SMILES: O=c1c(-c2ccc(O)cc2)coc2cc(O)cc(O)c12 [Genistein]
- Intracellular GSH levels, % compared to control ([1]; A549, 25 μM, 4 h): 34.8 ± 1.1%
- Int. GSH % con. [1, 9]: 5 % con.
- Int. GSH % con. ([2]; HL-60, 75 μM, 24 hours treatment): 57 % con.
- LDH rel. % con. [5]: 350 % con.
- LDH rel. % con. ([3]; HL-60, 50 μM): 160 % con.
- LDH rel. % con. [6]: 131 % con.
- Int. GSH % con. ([4]; 24 hours treatment): 81 % con.

SMILES: O=c1c(O)c(-c2ccc(O)c(O)c2)oc2cc(O)cc(O)c12 [Quercetin]
- Intracellular GSH levels, % compared to control ([1]; A549, 25 μM, 4 h): 51.0 ± 0.7%
- Int. GSH % con. [1, 9]: 36 % con.
- Int. GSH % con. [2, 10]: 94 % con.
- LDH rel. % con. [5]: 175 % con.
- LDH rel. % con. ([3]; HL-60, 50 μM): 157 % con.
- LDH rel. % con. [6]: 80 % con.
- Int. GSH % con. ([4]; 24 hours treatment): 95 % con.

SMILES: O=c1cc(-c2ccc(O)cc2)oc2cc(O)cc(O)c12 [Apigenin]
- Intracellular GSH levels, % compared to control ([1]; A549, 25 μM, 4 h): 17.1 ± 1.4%
- Int. GSH % con. [1, 9]: 9 % con.
- Int. GSH % con. [2, 10]: 66 % con.
- LDH rel. % con. [5]: 284 % con.
- LDH rel. % con. ([3]; HL-60, 50 μM): 259 % con.
- LDH rel. % con. [6]: 142 % con.
- effect on curcumin-induced toxicity, LDH release ([6]; PC-3 cells, 48 hours (FIG. 20C)): potentiated the curcumin's toxicity, but unexpectedly less than chrysin
- Int. GSH % con. ([4]; 24 hours treatment): 32 % con.
- effect on intracellular GSH (words) ([4]; PC-3 cells): one active flavone-like structure for inducing GSH depletion

SMILES: COc1cc([C@@H]2c3cc4c(cc3[C@@H](O[C@@H]3O[C@@H]5CO[C@@H](C)O[C@H]5[C@H](O)[C@H]3O)[C@H]3COC(=O)[C@H]23)OCO4)cc(OC)c1O [Etoposide, reference compound]
- activity at 50 µM [1, 11]: 55%
- effect on intracellular GSH (words) ([2]; HL-60 cells): relatively effective for depleting GSH
- activity at 25 µM [2, 12]: 7%
- LDH release, % of control at 50 µM [5]: 294%
- toxicity ([3]; HL-60 cells): toxic
- LDH release, % of control at 25 µM ([3]; HL-60, 25 μM): 290%
- LDH release, % of control at 50 µM [6]: 124%
- activity at 25 µM [4, 13]: 83%

SMILES: COc1ccc2c(=O)cc(-c3ccccc3)oc2c1 [7-MF, 7-Methoxyflavone]
- effect on intracellular GSH (words) [1]: less effective than 7-HF but more effective than flavone
- activity at 25 µM [1, 7]: 78.2 ± 2.4%

SMILES: COc1cc(/C=C/C(=O)CC(=O)/C=C/c2ccc(O)c(OC)c2)ccc1O [Curcumin, reference compound]
- activity at 50 µM [1, 11]: 53%
- activity at 25 µM [2, 12]: 221%
- LDH release, % of control at 75 µM [5]: 140%
- LDH release, % of control at 25 µM ([3]; HL-60, 25 μM): 180%
- LDH release, % of control at 50 µM [6]: 180%
- activity at 25 µM [4, 13]: 170%

SMILES: CN(C)C(=O)CCSC(SCCC(=O)O)c1cccc(/C=C/c2ccc3ccc(Cl)cc3n2)c1 (stereo not drawn) [MK-571, reference compound]
- activity at 25 µM [1, 7]: 62.6 ± 4.9%
- activity at 25 µM [1, 8]: < 5%
- activity at 25 µM [1, 14]: < 5%
- activity at 25 µM [2, 12]: 40%
- LDH release, % of control at 50 µM [5]: 249%
- LDH release, % of control at 25 µM ([3]; HL-60, 25 μM): 169%
- LDH release, % of control at 50 µM [6]: 143%
- activity at 25 µM [4, 13]: 41%

SMILES: O=c1cc(-c2ccccc2)oc2cc(O)c(O)c(O)c12 [Baicalein, 5,6,7 trihydroxyflavone]
- activity at 50 µM [1, 11]: 41%
- activity at 75 µM ([2]; Homo sapiens, HL-60, 75 μM, 24 hours treatment, read-out: Int. GSH % con.): 82%
- LDH release, % of control at 75 µM [5]: 206%
- LDH release, % of control at 50 µM ([3]; HL-60, 50 μM): 129%
- LDH release, % of control at 50 µM [6]: 94%
- activity at 50 µM ([4]; Homo sapiens, PC-3, 50 μM, 24 hours treatment, read-out: Int. GSH % con.): 100%

SMILES: O=c1c(O)c(-c2ccccc2)oc2cc(O)cc(O)c12 [Galangin, 3,5,7 trihydroxyflavone]
- activity at 25 µM [1, 7]: 62.9 ± 0.4%
- activity at 25 µM [1, 14]: < 5%
- activity at 50 µM ([2]; Homo sapiens, HL-60, 50 μM, 24 hours treatment, read-out: Int. GSH % con.): 69%
- LDH release, % of control at 75 µM [5]: 155%
- LDH release, % of control at 50 µM ([3]; HL-60, 50 μM): 114%
- LDH release, % of control at 50 µM [6]: 140%
- activity at 25 µM [4, 13]: 68%

SMILES: O=c1c(O)c(-c2ccc(O)cc2)oc2cc(O)cc(O)c12 [Kaempferol, 3,5,7,4′quadrahydroxyflavone]
- Intracellular GSH levels, % compared to control ([1]; A549, 25 μM, 4 h): 29.6 ± 0.9%
- Int. GSH % con. [1, 9]: 7 % con.
- Int. GSH % con. [2, 10]: 75 % con.
- LDH rel. % con. [5]: 173 % con.
- LDH rel. % con. ([3]; HL-60, 50 μM): 128 % con.
- LDH rel. % con. [6]: 115 % con.
- Int. GSH % con. ([4]; 24 hours treatment): 77 % con.

SMILES: O=c1cc(-c2ccccc2)oc2cccc(O)c12 [5-HF, 5-hydroxyflavone]
- effect on intracellular GSH (words) [1]: less effective
- activity at 25 µM [1, 8]: 44.7 ± 3.4%

SMILES: O=C(/C=C/c1ccccc1)c1ccc(O)cc1O [2′,4′-DHC, 2′ 4′ dihydroxychalcone]
- Intracellular GSH levels, % compared to control ([1]; A549, 25 μM, 2 h): 22.0 ± 1.8%
- Intracellular GSH levels, % compared to control ([1]; A549, 25 μM, 4 h): <5%

SMILES: O=C(/C=C/c1ccccc1O)c1ccccc1 [2-HC, 2-hydroxychalcone]
- activity at 25 µM [1, 7]: < 5%
- activity at 25 µM [1, 8]: < 5%

SMILES: O=C(/C=C/c1ccc(O)cc1)c1ccc(O)cc1O [2′,4′,4-THC, 2′,4′,4 trihydroxychalcone]
- activity at 25 µM [1, 7]: 6.8 ± 0.2%
- activity at 25 µM [1, 8]: < 5%

SMILES: O=C(/C=C/c1ccc(O)cc1)c1ccccc1 [4-HC, 4-hydroxychalcone]
- activity at 25 µM [1, 7]: 5.5 ± 0.4%
- activity at 25 µM [1, 8]: < 5%
